Results reported in US9109041B2, “Analog compounds of analgesic peptides derived from the venom of crotalus durissus terrificus snakes, their uses, compositions, methods of preparation and purification” (priority 2004, dated 2015).

How the values were obtained:
[1] = test system: allodynia induced by constriction of the sciatic nerve; test: allodynia induced by chronic constriction of the sciatic nerve (von Frey hairs); assay type: in vivo, rat; details: saline + antagonist alone i.pl. (ICI 10, nor-BNI 50, CTOP 20 μg/paw); for paw withdrawal threshold (allodynia), FM 1 h: 1 h after treatment; for paw withdrawal threshold (allodynia), FM 3 h: 3 h after treatment; for paw withdrawal threshold (allodynia), BM: before surgery; for paw withdrawal threshold (allodynia), IM: day 14, before treatment
Experimental: (§1) For the induction of neuropathic pain, surgery was performed in the sciatic nerve, in accordance with the method described by Bennett, G. J and Xie, Y. K. (Pain, 33:87-107, 1988). The animals were anesthetized with halothane. The sciatic nerve was exposed in the middle region of the thigh, moving away the femoral biceps muscle. Close to the trifurcation of the sciatic nerve, 7 mm of distance from the trifurcation, 4 loose ligations were performed (chromed catgut 4-0) around it, distant from each other in approximately 1 mm. The bindings were performed along the nerve, up to 4-5 mm from the initial point. The incision was sutured in layers, using silk suture thread number 4-0.
Allodynia was evaluated for quantitative testing, in response to tactile stimulus applied to the paws of the rat, according to the method described by Chaplan el al. (1994), modified. In this test, the rats were placed, individually, in plastic cages, with meshed wire at the bottom, to allow access to the paws of these animals. Briefly, a logarithmic series of 10 calibrated Semmes-Weinstein monofilaments (von Frey hairs, Aesthesiometer Semmer-Weinstein, Stoelting Co., E.U.A) was applied to the right hind paw to determine the stimulus intensity threshold stiffness required to elicit a paw withdrawal response. Log stiffness of the hairs is determined by log 10 (mg×10) having the following values (the value in grams is between parenthesis): 3.61 (0.407 g); 3.84 (0.692 g); 4.08 (1.202 g); 4.17 (1.479 g); 4.31 (2.041 g); 4.56 (3.630 g); 4.74 (5.495 g); 4.93 (8.511 g); 5.07 (11.749 g) and 5.18 (15.136 g). It is important to point out that the filaments with weight greater than 15.136 g were not employed in the studies of allodynia.
The filaments were applied, one by one, perpendicularly, under the plantar area of both hind paws and maintained for a period of 8 seconds. The filament capable of eliciting the withdrawal of the paw, two consecutive times, was considered as the force in grams necessary to elicit the response (100% of response). In the absence of a response to the greater stimulus (15.135 g), this filament was considered as cut value.
The behavioral responses were used to calculate the 50% paw withdrawal threshold (absolute threshold), by fitting a gaussian integral psychometric function, using a maximum-likelihood fitting method. This fitting method allows parametric analyses.
The period of the application of the test and the treatments were the same as those used for determination of hyperalgesia (Table 12).
The results were analyzed by comparing the means of the basal and initial measurements or, when determined, by comparing the means obtained in the different experimental groups.
(§2) For this purpose, the animals were treated with CTOP, a specific μ receptor antagonist (20 μg/paw), nor-BNI, a specific κ receptor antagonist (50 μg/paw) or with ICI 174,864, a specific δ receptor antagonist (10 μg/paw). The antagonists were injected, by intraplantar route. The peptide was administered in the dose of 5 μg/kg, orally, immediately before the injection of the opioid antagonists.
(§3) The results were analyzed comparing the mean values of the basal and initial measurements, or of the initial and final measurements or, when determined, by comparing the mean values obtained in the different experimental groups (Tables 15 and 16).

[2] = test system: hyperalgesia induced by chronic constriction of the sciatic nerve; test: hyperalgesia induced by chronic constriction of the sciatic nerve (rat paw pressure test); assay type: in vivo; details: saline + antagonist alone i.pl. (ICI 10, nor-BNI 50, CTOP 20 μg/paw); for pain threshold, FM 1 h: 1 h after treatment; for pain threshold, MF 3 h: 3 h after treatment; for pain threshold, BM: before surgery; for pain threshold, IM: day 14, before treatment
Experimental: as §1
The test was applied before (BM-basal measurement) and on the 14th day after the surgery, to characterize the development of neuropathic pain.
The results were analyzed by comparing the means of the basal and initial measurements or by comparing the means of the initial and final measurements or, when determined, through the comparison of the means obtained in the different experimental groups.
as §2, §3

Compound	paw withdrawal threshold (allodynia), FM 1 h [1]	paw withdrawal threshold (allodynia), FM 3 h [1]	paw withdrawal threshold (allodynia), BM [1]	paw withdrawal threshold (allodynia), IM [1]	pain threshold, FM 1 h [2]	pain threshold, MF 3 h [2]	pain threshold, BM [2]	pain threshold, IM [2]
Oc1ccc2c3c1O[C@H]1c4[nH]c5c(c4C[C@@]4(O)[C@@H](C2)N(CC2CC2)CC[C@]314)C[C@@]1(O)[C@H]2Cc3ccc(O)c4c3[C@@]1(CCN2CC1CC1)[C@H]5O4 [nor-BNI, nor-Binalthorphimine, reference compound]	4.22 ± 0 log 10 (mg × 10)	4.22 ± 0 log 10 (mg × 10)	5.08 ± 0 log 10 (mg × 10)	4.22 ± 0 log 10 (mg × 10)	32 ± 1.22 g	31 ± 1.00 g	72 ± 1.22 g	32 ± 1.22 g
CTOP [reference compound]	4.22 ± 0 log 10 (mg × 10)	4.22 ± 0 log 10 (mg × 10)	5.08 ± 0 log 10 (mg × 10)	4.22 ± 0 log 10 (mg × 10)	30 ± 1.58 g	30 ± 1.58 g	72 ± 1.22 g	28 ± 1.22 g
